In ChEMBL document CHEMBL3045199, “Synthesis of some (E)-6-[2-(furan-2-yl)ethenyl]-1,2,4-triazin-5-ones and their biological evaluation as antitumor agents” (2013):

Legend:
Type in all cases: functional
[1] = system: SN12C; experiment: Cytotoxicity against Homo sapiens (human) SN12C cells after 48 hr by SRB assay; conditions: read-out: pGI50 (converted)
[2] = system: EKVX; experiment: Cytotoxicity against Homo sapiens (human) EKVX cells after 48 hr by SRB assay; conditions: read-out: pGI50 (converted)
[3] = system: NCI-H226; experiment: Cytotoxicity against Homo sapiens (human) NCI-H226 cells after 48 hr by SRB assay; conditions: NCI-H226, 48 h, read-out: pGI50 (converted)
[4] = system: SF-295; experiment: Cytotoxicity against Homo sapiens (human) SF295 cells after 48 hr by SRB assay; conditions: SF-295, 48 h, read-out: pGI50 (converted)
[5] = system: NCI-H23; experiment: Cytotoxicity against Homo sapiens (human) NCI-H23 cells after 48 hr by SRB assay; conditions: NCI-H23, 48 h, read-out: pGI50 (converted)
[6] = system: 786-0; experiment: Cytotoxicity against Homo sapiens (human) 786-0 cells after 48 hr by SRB assay; conditions: 786-0, 48 h, read-out: pGI50 (converted)
[7] = system: K562; experiment: Cytotoxicity against Homo sapiens (human) K562 cells after 48 hr by SRB assay; conditions: K562, 48 h, read-out: pGI50 (converted)
[8] = system: A549; experiment: Cytotoxicity against Homo sapiens (human) A549 cells after 48 hr by SRB assay; conditions: A549, 48 h, read-out: pGI50 (converted)
[9] = system: UACC-257; experiment: Cytotoxicity against Homo sapiens (human) UACC257 cells after 48 hr by SRB assay; conditions: UACC-257, 48 h, read-out: pGI50 (converted)
[10] = system: PC-3; experiment: Cytotoxicity against Homo sapiens (human) PC3 cells after 48 hr by SRB assay; conditions: PC-3, 48 h, read-out: pGI50 (converted)
[11] = system: SNB-75; experiment: Cytotoxicity against Homo sapiens (human) SNB75 cells after 48 hr by SRB assay; conditions: SNB-75, 48 h, read-out: pGI50 (converted)
[12] = system: MCF7; experiment: Cytotoxicity against Homo sapiens (human) MCF7 cells after 48 hr by SRB assay; conditions: MCF7, 48 h, read-out: pGI50 (converted)
[13] = system: SW-620; experiment: Cytotoxicity against Homo sapiens (human) SW620 cells after 48 hr by SRB assay; conditions: SW-620, 48 h, read-out: pGI50 (converted)
[14] = system: UO-31; experiment: Cytotoxicity against Homo sapiens (human) UO31 cells after 48 hr by SRB assay; conditions: UO-31, 48 h, read-out: pGI50 (converted)
[15] = system: NCI-H522; experiment: Cytotoxicity against Homo sapiens (human) NCI-H522 cells after 48 hr by SRB assay; conditions: NCI-H522, 48 h, read-out: pGI50 (converted)
[16] = system: SK-MEL-2; experiment: Cytotoxicity against Homo sapiens (human) SK-MEL-2 cells after 48 hr by SRB assay; conditions: SK-MEL-2, 48 h, read-out: pGI50 (converted)
[17] = system: SK-OV-3; experiment: Cytotoxicity against Homo sapiens (human) SKOV3 cells after 48 hr by SRB assay; conditions: SK-OV-3, 48 h, read-out: pGI50 (converted)
[18] = system: U-251; experiment: Cytotoxicity against Homo sapiens (human) U251 cells after 48 hr by SRB assay; conditions: U-251, 48 h, read-out: pGI50 (converted)
[19] = system: TK-10; experiment: Cytotoxicity against Homo sapiens (human) TK10 cells after 48 hr by SRB assay; conditions: TK-10, 48 h, read-out: pGI50 (converted)
[20] = system: CAKI-1; experiment: Cytotoxicity against Homo sapiens (human) Caki1 cells after 48 hr by SRB assay; conditions: CAKI-1, 48 h, read-out: pGI50 (converted)
[21] = system: T47D; experiment: Cytotoxicity against Homo sapiens (human) T47D cells after 48 hr by SRB assay; conditions: read-out: pGI50 (converted)
[22] = system: RPMI-8226; experiment: Cytotoxicity against Homo sapiens (human) RPMI8226 cells after 48 hr by SRB assay; conditions: RPMI-8226, 48 h, read-out: pGI50 (converted)
[23] = system: HCT-15; experiment: Cytotoxicity against Homo sapiens (human) HCT15 cells after 48 hr by SRB assay; conditions: HCT-15, 48 h, read-out: pGI50 (converted)
[24] = system: OVCAR-8; experiment: Cytotoxicity against Homo sapiens (human) OVCAR8 cells after 48 hr by SRB assay; conditions: OVCAR-8, 48 h, read-out: pGI50 (converted)
[25] = system: NCI-H460; experiment: Cytotoxicity against Homo sapiens (human) NCI-H460 cells after 48 hr by SRB assay; conditions: NCI-H460, 48 h, read-out: pGI50 (converted)
[26] = system: CCRF-CEM; experiment: Cytotoxicity against Homo sapiens (human) CCRF-CEM cells after 48 hr by SRB assay; conditions: read-out: pGI50 (converted)
[27] = system: SF-268; experiment: Cytotoxicity against Homo sapiens (human) SF268 cells after 48 hr by SRB assay; conditions: SF-268, 48 h, read-out: pGI50 (converted)
[28] = system: Hs-578T; experiment: Cytotoxicity against Homo sapiens (human) Hs 578T cells after 48 hr by SRB assay
[29] = system: SK-MEL-28; experiment: Cytotoxicity against Homo sapiens (human) SK-MEL-28 cells after 48 hr by SRB assay; conditions: SK-MEL-28, 48 h, read-out: pGI50 (converted)
[30] = system: IGROV-1; experiment: Cytotoxicity against Homo sapiens (human) IGROV1 cells after 48 hr by SRB assay; conditions: IGROV-1, 48 h, read-out: pGI50 (converted)
[31] = system: COLO 205; experiment: Cytotoxicity against Homo sapiens (human) COLO205 cells after 48 hr by SRB assay; conditions: COLO 205, 48 h, read-out: pGI50 (converted)
[32] = system: HCC 2998; experiment: Cytotoxicity against Homo sapiens (human) HCC2998 cells after 48 hr by SRB assay; conditions: HCC 2998, 48 h, read-out: pGI50 (converted)
[33] = system: OVCAR-3; experiment: Cytotoxicity against Homo sapiens (human) OVCAR3 cells after 48 hr by SRB assay; conditions: OVCAR-3, 48 h, read-out: pGI50 (converted)
[34] = system: SNB-19; experiment: Cytotoxicity against Homo sapiens (human) SNB19 cells after 48 hr by SRB assay; conditions: SNB-19, 48 h, read-out: pGI50 (converted)

Question: Which GI50 [1] does the source give for `O=c1[nH]cc(F)c(=O)[nH]1` [FLUOROURACIL] here?
Answer: 25.1 µM

Question: What about the GI50 [2] of the same molecule?
Answer: 316 µM

Question: And the GI50 [3]?
Answer: 251 µM

Question: And the GI50 [4]?
Answer: 50.1 µM

Question: What about the GI50 [5] of the same molecule?
Answer: 12.6 µM

Question: And the GI50 [6]?
Answer: 12.6 µM

Question: And the GI50 [7]?
Answer: 20 µM

Question: What about the GI50 [8] of the same molecule?
Answer: 2 µM

Question: What about the GI50 [9] of the same molecule?
Answer: 100 µM

Question: And the GI50 [10]?
Answer: 50.1 µM

Question: And the GI50 [11]?
Answer: 200 µM

Question: And the GI50 [12]?
Answer: 1.58 µM

Question: And the GI50 [13]?
Answer: 25.1 µM

Question: What about the GI50 [14] of the same molecule?
Answer: 5.01 µM

Question: And the GI50 [15]?
Answer: 39.8 µM

Question: What about the GI50 [16] of the same molecule?
Answer: 398 µM

Question: And the GI50 [17]?
Answer: 158 µM

Question: What about the GI50 [18] of the same molecule?
Answer: 39.8 µM

Question: What about the GI50 [19] of the same molecule?
Answer: 126 µM

Question: And the GI50 [20]?
Answer: 3.98 µM

Question: And the GI50 [21]?
Answer: 79.4 µM

Question: And the GI50 [22]?
Answer: 5.01 µM

Question: And the GI50 [23]?
Answer: 6.31 µM

Question: And the GI50 [24]?
Answer: 20 µM

Question: What about the GI50 [25] of the same molecule?
Answer: 1 µM

Question: What about the GI50 [26] of the same molecule?
Answer: 31.6 µM

Question: And the GI50 [27]?
Answer: 50.1 µM

Question: And the GI50 [28]?
Answer: 251 µM

Question: What about the GI50 [29] of the same molecule?
Answer: 50.1 µM

Question: And the GI50 [30]?
Answer: 12.6 µM

Question: What about the GI50 [31] of the same molecule?
Answer: 6.31 µM

Question: What about the GI50 [32] of the same molecule?
Answer: 1.58 µM

Question: And the GI50 [33]?
Answer: 25.1 µM

Question: What about the GI50 [34] of the same molecule?
Answer: 126 µM
